# Data reported in paper PMC6987146, “Potent inhibition of HIV replication in primary human cells by novel synthetic polyketides inspired by Aureothin” (Scientific Reports, 2020).
# Where two headings read alike, the source gives them in different places.
# What was measured:
# HIV-1LAI = assay: EASY-HIT assay: infectious virus production by LC5-RIC reporter cells exposed to HIV-1LAI; assay type: cell-based; conditions: for Infectious virus production, median (fluorescent signal normalized to untreated virus-exposed cultures): 50 nM, LC5-RIC, secondary plates 72 h after transfer
# Experimental: To identify natural compounds with anti-HIV activity we screened a collection of 10,000 natural compounds: Anti-HIV activity was evaluated by determining compound effects on infectious virus production by LC5-RIC cells which are highly susceptible for HIV and contain a DsRed1-encoding reporter gene activated by HIV-infection[6]–[8]. For screening, cultures of LC5-RIC reporter cells were first exposed to virus in the presence of the compound (first-step of the assay). Subsequently, supernatants of these cultures were transferred to secondary plates with uninfected LC5-RIC cells. The fluorescent signal of the cultures in the secondary plates served as a measure of compound effects on infectious virus production.
# Anti-HIV activities of compounds were profiled in LC5-RIC cells with the EASY-HIT assay as described in[6]. Briefly, LC5-RIC cells were first exposed to virus and compounds (first step of the assay). Compound effects on infectious virus production were determined by transferring aliquots of supernatants of compound-treated cultures to secondary plates and measurement of fluorescent signal intensities in secondary plates after 72 h (second step of the assay). Fluorescent signal intensities determined for compound-treated cultures were normalized to those determined for untreated virus-exposed cultures.
# HIV-1OMVP5180-91 = assay: Inhibition of clinical isolate HIV-1O MVP5180-91 in PBMCs; assay type: cell-based; conditions: PBMC, HIV-type 1, Outlier group
# Source text: (§1) Clinical isolates represented the following HIV genotypes: HIV-1MMVP899-87: HIV-type 1, Major group; HIV-1OMVP5180-91: HIV-type 1, Outlier group; HIV-2MVP10668-93: HIV-type 2; HIV-1V13-03413B: HIV-type 1, Major group/B-clade, isolate with multiple drug-resistance mutations. Depicted are the means of three independent experiments with biological triplicates (n = 3; m = 3) and standard deviations (SD).
# (§2) Isolation of primary clinical HIV-isolates HIV-1MMVP899-87, HIV-1OMVP5180-91, HIV-1V13-03413B and HIV-2MVP10668-93 is described in[43]. The HIV-1 M group/B-clade isolate (HIV-1V13-03413B) was isolated from a patient with virological treatment failure. Clinical isolates were produced from HIV infected H9 cells as described.
# (§3) To evaluate anti-HIV efficacies of test compounds in primary human target cells, stimulated PBMCs were seeded in 96-well plates at a density of 500,000 cells per well, different #7concentrations of the compound (serial dilutions) and virus inoculum (MOI of 0.5) added to the PBMCs and cultures incubated for 48 h. Infectious virus production was quantified by transferring 35 µl of supernatant from the PBMC cultures to LC5-RIC cells, seeded in black 96-well plates one day earlier. LC5-RIC cultures were then incubated for 72 h and analysed for DsRed1 reporter expression and anti-HIV activity calculated as described for the EASY-HIT assay.
# HIV-1V13-03413B = assay: Inhibition of multi-drug-resistant clinical isolate HIV-1 V13-03413B in PBMCs; assay type: cell-based, HIV-type 1; conditions: Human immunodeficiency virus 1, PBMC
# Source text: as §1, §2, §3
# PBMC = assay: CellTiter-Glo 2.0 cell viability assay in PBMC; assay type: cell-based, human; conditions: PBMC
# Experimental: The following assays were used to profile cell safety of compound treatment in HIV-exposed cultures (LC5-RIC or PBMC): (1) CellTox^TM Green Cytotoxicity Assay, Promega, measures binding of a fluorescent dye to DNA of cells with impaired membrane integrity; (2) CellTiter-Glo® 2.0 Assay, Promega, which measures the amount of ATP in viable cells after lysis using an assay with luminescence read-out. Cells were plated into black 96-well plates followed by overnight incubation at 37 °C, 5% CO2. Compounds dissolved in DMSO were screened at multiple concentrations from 0.6 to 10,000 nM at a final DMSO concentration of 0.04% followed by additional 48 h incubation. Both assays were performed according to manufacturer’s recommendations and consecutively in the above mentioned order. Cells were washed once with PBS between the assays.
# [1] = tested on: HIV-1 transcripts (unspliced, singly spliced, multiply spliced, all); assay: Relative levels of HIV-1 transcript classes by qRT-PCR in LC5-RIC cells; assay type: cell-based; conditions: HIV-1LAI, 48 h, vs untreated
# Experimental: LC5-RIC cells were plated, treated with compounds and inoculated with virus as described for Alu-PCR above. Cells were then harvested and RNA was extracted using the RNeasy Mini Kit (QIAGEN), according to the manufacturer’s protocol. For cDNA synthesis, 1 µg of total RNA was reverse transcribed by SuperScript II reverse transcriptase (Invitrogen) according to manufacturer’s recommendations. qRT-PCR was performed with the Roche Light Cycler® 480II 96 (Version 1.5.0.39), using LightCycler® 480 SYBR Green I Mastermix (Roche). Quantitative PCR for HIV-1 transcripts was performed with primers specific for unspliced, singly spliced or multiply spliced HIV-1 transcripts as well as for ‘all HIV transcripts’; RNA Polymerase II transcripts were analysed as internal reference gene. Primer sequences are given in Supplementary Methods and binding sites shown in Supplementary Fig. S3. Data was analysed with the second derivative maximum method. The relative amount of HIV-1 transcripts in treated versus untreated samples was calculated by the 2^(−ΔΔCt) method, using RNA polymerase II as reference gene.
# The following primers were used to perform the qRT-PCR analysis (primer sequences 5’ ? 3’): multiply spliced, forward: ATGGAGCCAGTAGATCCTAG, reverse: AGT CTC TCA AGC GGT GGT ^1; singly spliced, forward: GGc GGC GAC TGG AAG AGG C, reverse: CTATGATTACTATGGACCACA ^1; unspliced, forward: CTG AAG CGC GCA CGG CAA, reverse: GACGCTCTCGCACCCATCTC ^1; ‘all HIV transcripts’, forward: GTGTGTGGTAGATCCACAGATCAAGG, reverse: CCAGTCACACCTCAGGTACCTTTAAGACC ^2; RNA polymerase II, forward: GCA CCA CGT CCA ATG ACA T, reverse: GTG CGG CTG CTT CCA TAA ^3. See primer binding sites in different HIV transcripts in Fig. S1.
SMILES,"Infectious virus production, median (fluorescent signal normalized to untreated virus-exposed cultures) (HIV-1LAI)","IC90 (HIV-1LAI; Human immunodeficiency virus 1, read-out: IC90, 90% inhibitory concentration)","IC50 (HIV-1LAI; LC5-RIC cells exposed to HIV-1LAI, infectious virus production, mean ± SD, listed as #7, read-out: IC50, half maximal inhibitory concentration)","IC50 (HIV-1LAI; LC5-RIC cells exposed to HIV-1LAI, infectious virus production, mean ± SD, read-out: IC50, half maximal inhibitory concentration)",IC50 (HIV-1OMVP5180-91),IC90 (HIV-1OMVP5180-91),"IC50 (HIV-1V13-03413B; read-out: IC50 value, HIV-1 V13-03413B)","IC90 (HIV-1V13-03413B; read-out: IC90 value, HIV-1 V13-03413B)",selectivity index (CC50/IC50) (PBMC),levels of singly spliced HIV transcripts [1],levels of unspliced HIV transcripts [1],overall abundance of HIV mRNAs (all transcripts primers) [1],relative levels of multiply spliced HIV transcripts [1],"IC50 (HIV-1LAI; Human immunodeficiency virus 1, read-out: Anti-HIV in LC5-RIC, IC50)"
COc1oc(C2C/C(=C/C(C)=C/c3ccc(C(F)(F)F)cc3)CO2)c(C)c(=O)c1C (stereo not shown) [compound #7],0.96,13.4 ± 1.75 nM,< 10 nM,4.9 ± 0.16 nM,2.88 nM,8.65 nM,4.2 nM,10.5 nM,> 970,strongly diminished,strongly diminished,reduced the overall abundance of HIV mRNAs,did not reduce relative levels of multiply spliced transcripts,
CN1CC[C@H](c2c(O)cc(O)c3c(=O)cc(-c4ccccc4Cl)oc23)[C@H](O)C1 [Flavopiridol],10.38,,,,,,,,,,,,much stronger inhibitory effect on levels of multiply spliced transcripts than compound #7,10.9 ± 0.5 nM
